Tests used:
Type in all cases: cell-based
[1] = tested on: episome-derived E. coli orthogonal ribosome LSUs; experiment: Erythromycin-dependent (ermCL) orthogonal sfGFP reporter in S4246, E. coli orthogonal ribosomes
Description: (§1) To assess the degree of association between E. coli LSUs and heterologous SSUs, an erythromycin-dependent reporter was developed to distinguish between genome- (E. coli; erythromycin-resistant) and episome-derived (heterologous; erythromycin-sensitive) LSUs. The erythromycin-resistant strain S4246 was developed, wherein all seven genomic 23S genes (rrlA-H) of 52060 cells were mutated (A2058U) (75) to mitigate macrolide binding in the ribosomal exit tunnel (FIG. 18A) (76, 77). rrlA-H A2058U sequences are presented in Table 1.
(§2) Next, the ErmC leader peptide, ermCL, was introduced ahead of the orthogonal sfGFP reporter, ensuring that reporter translation would be abrogated via erythromycin- and ermCL-dependent translational stalling (78) (FIG. 18B).
To validate this sensor, the erythromycin sensitivity of an episome-derived E. coli orthogonal ribosome encoding or lacking the identical A2058U mutation was assessed. A recently described stapled E. coli ribosome (d2d8) (7) that preferentially uses a covalently linked 23S rRNA, with or without the identical mutation was used as a control.

E. coli strain S4246 = experiment: Antibiotic sensitivity/resistance of erythromycin-resistant strain S4246
Method: The erythromycin-resistant strain S4246 was generated using conventional recombineering (76, 77). Briefly, chemically competent S2060 cells were transformed with pKD46 (77) and plated on 2×YT agar plates supplemented with 50 μg mL^−1 carbencillin at 30° C. A single colony was picked, grown at 30° C. in 2×YT liquid medium supplemented with 50 μg mL^−1 carbencillin and 10 mM arabinose, and made chemically competent when the culture reached the appropriate OD600. Chemically competent S2060/pKD46 cells were transformed with the phosphothiorated recombineering oligonucleotide AB5708 (5′-C*T*C*A*[…] CCGCG […]-3′, SEQ ID NO: 403; phosphothirate bonds indicated as *, introduced mutation is bolded) to introduce the rrlA-H A2058U mutation on replichore 2 (76). Following recovery for 3 hours at 30° C., transformed cells were plated on 2×YT agar plates supplemented with 1000 μg mL^−1 erythromycin and incubated at 37° C. to cure the resident pKD46 plasmid. Following overnight growth, single colonies were picked into 2×YT liquid medium supplemented with 50 μg mL^−1 streptomycin, 10 μg mL^−1 tetracycline and 1000 μg mL^−1 erythromycin and allowed to grow overnight at 37° C. To assess the degree of rrlA-H mutagenesis, cultures were used as PCR templates using primers AB5710 (5′-[…]-3′, SEQ ID NO: 404) and AB5711 (5′-[…]-3′, SEQ ID NO: 405), and the PCR products were treated with the endonuclease HpyCH4III (New England Biolabs) according to the manufacturer's guidelines. Wildtype rrlA-H genotypes show no digestion under these conditions, whereas complete conversion results in complete PCR product digestion. Intermediate (incomplete) digestion indicated in incomplete conversion of all seven genomic alleles. The completely converted strain S4246 was confirmed to be sensitive to the following antibiotics (ensures no resistance crosstalk with plasmid-borne markers): carbenicillin (50 μg mL^−1), spectinomycin (100 μg mL^−1), chloramphenicol (40 μg mL^−1), and kanamycin (30 μg mL^−1). The strain was confirmed to be resistant to the following antibiotics: streptomycin (50 μg mL^−1), tetracycline (10 μg mL^−1), and erythromcyin (1000 μg mL^−1).

heterologous ribosomes = experiment: Erythromycin-dependent orthogonal sfGFP reporter in S4246, heterologous ribosomes
Description: as §1, §2
This analysis was next extended to a set of 20 functional heterologous ribosomes.

[2] = heterologous ribosomes bearing intermediate homology (92.9-97.0%)

With CC[C@H]1OC(=O)[C@H](C)[C@@H](O[C@H]2C[C@@](C)(OC)[C@@H](O)[C@H](C)O2)[C@H](C)[C@@H](O[C@@H]2O[C@H](C)C[C@H](N(C)C)[C@H]2O)[C@](C)(O)C[C@@H](C)C(=O)[C@H](C)[C@@H](O)[C@]1(C)O [erythromycin] the “change in orthogonal translation upon erythromycin dosing” value ([1]; A2058U-LSUs, free and stapled (d2d8)) was “no appreciable change”, the “change in orthogonal translation upon erythromycin dosing” value ([1]; unmutated LSUs, dose-dependent) was “marked reduction” and the MIC (E. coli strain S4246; Escherichia coli, S4246) was greater than 1000 µg/mL. The “resistance of strain S4246” value (E. coli strain S4246; erythromycin 1000 μg mL^−1) was “resistant”, the “sfGFP signal upon erythromycin treatment” value (heterologous ribosomes; [2]) was “extensive reduction” and the “viability upon erythromycin treatment” value (heterologous ribosomes; [2]) was “no associated viability defect”. The “sfGFP translation and cell viability upon erythromycin treatment” value (heterologous ribosomes; heterologous ribosomes with high 16S sequence identity to E. coli (≥99.2%)) was “dramatic reduction” and the “sfGFP signal upon erythromycin treatment” value (heterologous ribosomes; more divergent heterologous ribosomes (79.3-90.3%)) was “decreased minimally”.

With O=C(N[C@H](CO)[C@H](O)c1ccc([N+](=O)[O-])cc1)C(Cl)Cl [chloramphenicol] the “sensitivity of strain S4246” value (E. coli strain S4246; chloramphenicol 40 μg mL^−1) was “sensitive”.

[H]/N=C(/N)N[C@H]1[C@H](O)[C@@H](O)[C@H](O[C@@H]2O[C@@H](C)[C@](O)(C=O)[C@H]2O[C@@H]2O[C@@H](CO)[C@H](O)[C@@H](O)[C@@H]2NC)[C@@H](N/C(N)=N\[H])[C@@H]1O [streptomycin] was tested, and the “resistance of strain S4246” value (E. coli strain S4246; streptomycin 50 μg mL^−1) was “resistant”.

In the case of CC1(C)S[C@@H]2[C@H](NC(=O)C(C(=O)O)c3ccccc3)C(=O)N2[C@H]1C(=O)O (stereo partly drawn) [carbenicillin], the “sensitivity of strain S4246” value (E. coli strain S4246; carbenicillin 50 μg mL^−1) is reported as “sensitive”.

In the case of CN[C@@H]1[C@H](O)[C@H](NC)[C@H]2O[C@@]3(O)C(=O)C[C@@H](C)O[C@H]3O[C@@H]2[C@H]1O [spectinomycin], the “sensitivity of strain S4246” value (E. coli strain S4246; spectinomycin 100 μg mL^−1) is reported as “sensitive”.
